Common to all, as to experiment: NCI-60 cell line screen, 48 h
The test system of test [1] is TK-10 renal.
Test [2] has as its system RXF 393 renal.
Test [3] deals with HCT-116 colon.
Test [4] has as its system HS 578T breast.
Test [5] concerns MCF7 breast.
Test [6] has as its system KM12 colon.
The subject of test [7] is ACHN renal.
Test [8] has as its system SR leukemia.
For test [9], the system named is SF-295 CNS.
For test [10], the system named is UACC-257 melanoma.

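Results reflect a 48-hour exposure of cells in 96-well plates to compound at five concentrations. At the GI50, growth is halved. TGI: total growth inhibition.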

In the case of `COc1ccc(Nc2nc3ccccc3c3occc23)cc1`, the GI50 is 6.83 µM in [1]; 5.42 µM in [2]; 6.9 µM in [3]; 7.12 µM in [4]; 7.02 µM in test [5]; 1.78 µM in test [6]. Also, the GI50 in [7] is 5.35 µM; in test [8] it was 0.663 µM; in test [9] it was 6.64 µM; in [10] it was 19.8 µM. The TGI in [1] came to 16.4 µM; in test [2] it was 19.1 µM; in test [3], 13.4 µM; in test [4] it was 16.3 µM; in test [5], 27.2 µM; in [6] it was 7.99 µM. Moreover, the TGI in [7] is 13.7 µM; in test [8] it was above 50 µM; in [9], 13.2 µM; in test [10], above 50 µM.
`NC(=O)[C@@H](CC1CC1)[C@@H](CCC(F)(F)F)C(=O)N[C@H]1N=C(c2ccccc2)c2cccc(F)c2NC1=O`: the GI50 was above 100 µM in test [1]; 68 µM in test [2]; above 100 µM in [3]; above 100 µM in test [4]; 28.3 µM in test [5]; above 100 µM in test [6]. Further, the GI50 is 66 µM in test [7], 12 µM in test [8], above 100 µM in [9] and above 100 µM in [10]. Besides, the TGI in [1], in test [2], in [3], in test [4], in test [5] and in [6] was above 100 µM throughout. The TGI in test [7], in [8], in test [9] and in test [10] was above 100 µM throughout.

(Values after PubChem BioAssay (NCI).)
